Where two headings read alike, the source gives them in different places.
Experiments:
[1] = Liver microsome metabolism assay; conditions: CD1, mouse, liver microsomes
[2] = Evaluation of pharmacokinetics in rats; format: in vivo; conditions: male, SD, rat, plasma, 1 mg/kg, oral gavage (PO, 1 mpk)
Excerpt: Test Animals: 6-8 Week Old Male SD Rats
Food was restored two hours after dosing.

[3] = test system: UWB1.289 ovarian cancer cells; assay: Cell proliferation assay, UWB1.289; format: cell-based; conditions: UWB1289, 168 h, read-out: UWB1.289 Cell IC50
Method: Experimental Materials: MDA-MB-436 or UWB1.289 cell lines were purchased from Cobioer Biosciences Co. Ltd. (Nanjing, China). The STR identification results were a complete match, and mycoplasma testing was negative. MDA-MB-436 cells were cultured in DMEM complete medium containing 10% fetal bovine serum, 1% penicillin-streptomycin, 1% insulin, and 16 μg/mL glutathione; UWB1.289 cells were cultured in RMPI1640 complete medium containing 10% fetal bovine serum and 1% penicillin-streptomycin.
1. MDA-MB-436 or UWB1.289 cells were cultured in the aforementioned medium (culture conditions: 37° C., 5.0% CO2 in air) until they reached the logarithmic growth phase. The cells were then digested with trypsin containing 0.25% EDTA, centrifuged at 1000 rpm, and the supernatant was discarded. Cell culture medium was added, and the cell suspension was adjusted to 2×10^4/mL after counting. 135 μL of the cell suspension per well was taken and cultured in a 96-well cell culture plate for 16 hours (culture conditions: 37° C., 5.0% CO2 in air).
2. The test compounds, stored at a concentration of 10 mM, were diluted 2.5 times with DMSO and then serially diluted in a 1:3 gradient (9 gradients). The gradient-diluted samples were further diluted 40 times with serum-free medium, and 15 μL of each was added to the 96-well cell culture plate. The positive control group received serum-free medium containing the same concentration of DMSO, and the negative control group received medium without cells. The cells were then cultured for an additional 7 days.
3. After the culture period, the cell culture plate was placed at room temperature for 30 minutes. Then, 100 μL of CellCounting-Lite 2.0 reagent (Vazyme, #DD1101) was added to each well, mixed thoroughly, and incubated in the dark at room temperature for 10 minutes. The luminescence signal was read using a Synergy HTX multi-mode reader.
4. Data analysis was performed using GraphPad Prism 8.0 software. The inhibition rate (%) was calculated as 100*(average luminescence signal of the positive control group−luminescence signal of the compound)/(average luminescence signal of the positive control group−average luminescence signal of the negative control group). The IC50 value was obtained by plotting the logarithm of the compound concentration against the percentage inhibition rate.

PARP1 [4] = molecular target: T1, PARP1 (Homo sapiens (Human), UniProt P09874); assay: PARP1 trapping assay; format: biochemical; conditions: read-out: Inhibitory Effect on PARP1 Trapping IC50
T1 sequence (P09874 whole entry): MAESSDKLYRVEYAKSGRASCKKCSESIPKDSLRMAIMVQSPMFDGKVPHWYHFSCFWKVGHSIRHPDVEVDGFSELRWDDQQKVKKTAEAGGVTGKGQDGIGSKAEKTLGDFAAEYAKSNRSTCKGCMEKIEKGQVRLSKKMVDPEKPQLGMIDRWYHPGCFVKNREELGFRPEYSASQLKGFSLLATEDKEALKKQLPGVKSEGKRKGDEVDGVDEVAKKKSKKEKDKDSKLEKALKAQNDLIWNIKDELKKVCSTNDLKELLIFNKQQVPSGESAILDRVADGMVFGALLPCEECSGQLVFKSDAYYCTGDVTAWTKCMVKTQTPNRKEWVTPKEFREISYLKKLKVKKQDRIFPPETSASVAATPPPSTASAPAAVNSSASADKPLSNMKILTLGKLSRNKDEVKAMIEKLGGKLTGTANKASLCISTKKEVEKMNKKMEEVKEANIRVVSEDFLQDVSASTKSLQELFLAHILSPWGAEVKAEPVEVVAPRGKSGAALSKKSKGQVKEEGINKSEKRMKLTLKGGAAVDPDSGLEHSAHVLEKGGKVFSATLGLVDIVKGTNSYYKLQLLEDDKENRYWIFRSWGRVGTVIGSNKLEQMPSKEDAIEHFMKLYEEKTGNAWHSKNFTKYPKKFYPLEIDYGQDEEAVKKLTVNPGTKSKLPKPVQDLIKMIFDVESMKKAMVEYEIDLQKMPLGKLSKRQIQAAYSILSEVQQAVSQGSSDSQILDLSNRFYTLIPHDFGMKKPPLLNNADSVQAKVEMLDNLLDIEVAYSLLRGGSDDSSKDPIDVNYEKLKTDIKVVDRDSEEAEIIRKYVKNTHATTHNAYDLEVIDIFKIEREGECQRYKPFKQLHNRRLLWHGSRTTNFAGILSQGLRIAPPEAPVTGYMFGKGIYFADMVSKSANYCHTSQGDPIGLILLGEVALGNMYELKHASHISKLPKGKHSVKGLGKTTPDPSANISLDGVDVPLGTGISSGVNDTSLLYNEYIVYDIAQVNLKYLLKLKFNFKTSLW
Method: (§1) [table] […] 1. A 4× enzyme reaction mixture, comprising PARP1, PARP2, and GST-Tb antibody, was prepared with the buffer and 4 μL of the enzyme reaction mixture was added to a 384-well plate. 2. A 4×PARP1 and PARP2 probe reaction mixture was prepared with the buffer and 4 μL of the probe reaction mixture was added to the 384-well plate. 3. A series of gradient-diluted compounds were prepared and 4 μL of the diluted compounds were added to the 384-well plate, and incubated at room temperature for 45 minutes. 4. After incubation, 4 μL of 4×NAD reaction mixture was added to the 384-well plate and incubated at room temperature for 10 minutes. 5. After incubation, the plate was read using a plate reader. 6. Data Analysis: The percentage inhibition rate was calculated as follows: Inhibition Rate (%)=(Reading of Compound Group−Reading of Blank Group)/(Reading of Vehicle Control Group−Reading of Blank Group).

PARP1 [5] = molecular target: T1, PARP1; assay: PARP enzyme activity assay (PARP1 chemiluminescent assay kit); format: biochemical; conditions: enzyme inhibitory activity, read-out: PARP-1 IC50
Outline: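 Chemiluminescent kit measuring PARP1 poly(ADP-ribosylation) of plate-coated histones in presence of activated DNA; compounds in 1:3 serial dilution, top 10 μM before 10-fold buffer dilution. Enzyme (2.5 ng/μL added) reacted 60 min at room temperature, detected by streptavidin-HRP luminescence; IC50 from log-concentration vs % inhibition.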

[6] = test system: MDA-MB-436 breast cancer cells; assay: Cell proliferation assay, MDA-MB-436; format: cell-based; conditions: Homo sapiens, MDA-MB-436, 168 h, read-out: MDA-MB-436 Cell IC50
Outline: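 Cells seeded 16 h, then exposed to a 9-point 1:3 compound dilution series for 7 days at 37° C., 5% CO2; DMSO-matched and cell-free controls. Viability by CellCounting-Lite luminescence; IC50 from log concentration versus % inhibition.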

PARP2 = PARP2 (Homo sapiens (Human), UniProt Q9UGN5); assay: PARP2 trapping assay; format: biochemical; conditions: read-out: Inhibitory Effect on PARP2 Trapping IC50
Chain of PARP2 (Q9UGN5 whole entry): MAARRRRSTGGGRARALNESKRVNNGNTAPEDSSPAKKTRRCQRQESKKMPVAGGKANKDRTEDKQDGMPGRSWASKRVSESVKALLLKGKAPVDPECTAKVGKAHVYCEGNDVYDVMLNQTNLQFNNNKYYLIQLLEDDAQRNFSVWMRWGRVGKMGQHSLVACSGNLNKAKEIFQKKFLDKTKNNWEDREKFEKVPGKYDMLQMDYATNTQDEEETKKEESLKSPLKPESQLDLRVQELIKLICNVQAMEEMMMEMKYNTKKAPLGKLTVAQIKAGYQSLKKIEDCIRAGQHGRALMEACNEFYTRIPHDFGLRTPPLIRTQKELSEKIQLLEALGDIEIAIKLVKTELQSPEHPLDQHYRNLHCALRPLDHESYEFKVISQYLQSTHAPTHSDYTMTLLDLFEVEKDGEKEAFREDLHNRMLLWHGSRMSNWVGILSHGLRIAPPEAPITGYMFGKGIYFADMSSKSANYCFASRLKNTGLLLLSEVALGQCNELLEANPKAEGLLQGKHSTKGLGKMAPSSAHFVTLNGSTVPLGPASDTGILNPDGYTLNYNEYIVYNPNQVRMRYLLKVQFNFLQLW
Method: as §1

[7] = Evaluation of pharmacokinetics in mice; conditions: male, ICR (CD1), mouse, plasma, po, 10 mg/kg
in vivo = conditions: male, ICR (CD1), mouse, po, 10 mg/kg
in vitro = conditions: CD1, mouse, microsomes

CNC(=O)c1ccc(N2CCN(Cc3cc4[nH]c(=O)c(C(F)(F)F)c(C)c4cn3)CC2)cn1 [Compound 2, N-methyl-5-(4-((4-methyl-2-oxo-3-(trifluoromethyl)-1,2-dihydro-1,6-naphthyridin-7-yl)methyl)piperazin-1-yl)picolinamide]
microsomal CLint at 1 µM [1]: 0.39 µL/min/mg | AUC(0-inf) [2]: 19.3 µg·h/mL | Cmax [2]: 2000 ng/mL | half-life [2]: 5.07 h | IC50 [3]: 2.76 nM | IC50 (PARP1 [4]): 1.22 nM | IC50 (PARP1 [5]): 3.14 nM | IC50 [6]: 2.32 nM | IC50 (PARP2): 137 nM

CNC(=O)c1ccc(C2=CCN(Cc3cnc4c(C)c(C(F)(F)F)c(=O)[nH]c4c3)CC2)cn1 [Compound 14, N-methyl-1′-((8-methyl-6-oxo-7-(trifluoromethyl)-5,6-dihydro-1,5-naphthyridin-3-yl)methyl)-1′,2′,3′,6′-tetrahydro-[3,4′-bipyridine]-6-carboxamide]
AUC(0-inf) [2]: 19.2 µg·h/mL | Cmax [2]: 1770 ng/mL | half-life [2]: 6.35 h | AUC(0-inf) [7]: 2720 µg·h/mL | Cmax [7]: 128000 ng/mL | half-life [7]: 27.8 h | IC50 ([3]; proliferation, 7 days): 4.93 nM | IC50 (PARP1 [4]): 1.38 nM | IC50 (PARP1 [5]): 0.83 nM | IC50 ([6]; proliferation, 7 days): 2.38 nM | IC50 (PARP2): 176 nM

CNC(=O)c1ccc(N2CCN(Cc3cnc4c(C)c(C(F)(F)F)c(=O)[nH]c4c3)[C@@H](C)C2)cn1 [Compound 52, (S)—N-methyl-5-(3-methyl-4-((8-methyl-6-oxo-7-(trifluoromethyl)-5,6-dihydro-1,5-naphthyridin-3-yl)methyl)piperazin-1-yl)picolinamide]
AUC(0-inf) [2]: 18.8 µg·h/mL | Cmax [2]: 1450 ng/mL | half-life [2]: 5.67 h | AUC(0-inf) [7]: 1550 µg·h/mL | Cmax [7]: 50200 ng/mL | half-life [7]: 25.9 h | IC50 ([3]; proliferation, 7 days): 11.2 nM | IC50 (PARP1 [4]): 1.6 nM | IC50 ([6]; proliferation, 7 days): 5.05 nM | IC50 (PARP2): 271 nM

CNC(=O)c1ccc(N2CCN(Cc3cnc4c(C)c(C(F)(F)F)c(=O)[nH]c4c3)C[C@H]2C)cn1 [Compound 54, (R)—N-methyl-5-(2-methyl-4-((8-methyl-6-oxo-7-(trifluoromethyl)-5,6-dihydro-1,5-naphthyridin-3-yl)methyl)piperazin-1-yl)picolinamide]
AUC(0-inf) [2]: 16.8 µg·h/mL | Cmax [2]: 1690 ng/mL | half-life [2]: 7.2 h | AUC(0-inf) [7]: 987 µg·h/mL | Cmax [7]: 48200 ng/mL | half-life [7]: 17.9 h | IC50 ([3]; proliferation, 7 days): 3.34 nM | IC50 (PARP1 [4]): 1.31 nM | IC50 ([6]; proliferation, 7 days): 4.32 nM | IC50 (PARP2): 192 nM

CNC(=O)c1cnc(C2=CCN(Cc3cnc4c(C)c(C(F)(F)F)c(=O)[nH]c4c3)CC2)cn1 [Compound 79, N-methyl-5-(1-((8-methyl-6-oxo-7-(trifluoromethyl)-5,6-dihydro-1,5-naphthyridin-3-yl)methyl)-1,2,3,6-tetrahydropyridin-4-yl)pyrazine-2-carboxamide]
AUC(0-inf) (in vivo): 2420 µg·h/mL | Cmax (in vivo): 57000 ng/mL | half-life (in vivo): 30.5 h | IC50 ([6]; proliferation, 7 days): 18.5 nM | microsomal CLint at 1 µM (in vitro): 0.69 µL/min/mg

CNC(=O)c1ccc(C2=CCN(Cc3cc4[nH]c(=O)c(C(F)(F)F)c(C)c4cn3)CC2)cn1 [Compound 89, N-methyl-1′-((4-methyl-2-oxo-3-(trifluoromethyl)-1,2-dihydro-1,6-naphthyridin-7-yl)methyl)-1′,2′,3′,6′-tetrahydro-[3,4′-bipyridine]-6-carboxamide]
IC50 (PARP1 [4]): 1.53 nM | IC50 ([6]; proliferation, 7 days): 1.06 nM | microsomal CLint at 1 µM (in vitro): 0.81 µL/min/mg

Source: patent publication US20250051324A1, “PARP INHIBITOR, PHARMACEUTICAL COMPOSITION COMPRISING SAME, AND USE THEREOF” (KEYTHERA (SUZHOU) BIO-PHARMACEUTICALS CO., LIMITED, priority 2021, published 2025)
